# From patent US20240316001A1, “USE OF PHARMACEUTICAL COMPOSITION COMPRISING CHLOROGENIC ACID IN PREPARATION OF DRUG FOR TREATING EARLY ALZHEIMER'S DISEASE” (SICHUAN JIUZHANG BIOLOGICAL SCIENCE AND TECHNOLOGY CO., LTD., priority 2021, published 2024)
# What was measured:
# [1] = tested on: chronic cerebral hypoperfusion model rats (bilateral carotid artery ligation; simulated early AD); test: Morris water maze orientation navigation experiment in chronic cerebral hypoperfusion model rats; assay type: in vivo, Sprague Dawley (SD) rats; conditions: for average escape latency in Morris water maze experiment / searching distance in Morris water maze experiment: after 20 consecutive days of administration, CGA 60 mg/kg/d i.p., 3-coumaroylquinic acid alone 0.03 mg/kg/d i.p., sodium oligomannate 100 mg/kg/d gavage, mean±SD, n=10; for escape latency and searching distance of rats compared with the model group (in words): Morris water maze, over the 5-day experiment, versus model group
# Excerpt: (§1) In this experiment, the occurrence of mild AD in humans after chronic cerebral hypoperfusion was simulated by performing bilateral carotid artery ligation in rats, and the intervention of the pharmaceutical composition according to the present invention on the learning and memory ability of these rats was observed, in order to investigate the therapeutic effect of the pharmaceutical composition according to the present invention on early AD.
# (§2) 2.1. Experimental Animals: 6-8 Week Old, SPF Grade, Male Sprague Dawley (SD) Healthy Rats, Weighing 280-300 g.
# (§3) A chronic cerebral hypoperfusion model was established by bilateral carotid artery ligation. Rats were acclimated to the environment for 1 week, and then fasted for 12 h and water-deprivated for 4 h before surgery. The rats were anesthetized with 0.4% pentobarbital sodium (0.5 mL/100 g i.p.), and fixed in a supine position on the operating table. Hair was removed from the skin in front of the neck. The naked skin was disinfected with iodine, and then the rats were incised in the middle of the neck. The subcutaneous superficial fascia was bluntly separated, and then the sternocleidomastoideole and sternohyoid muscle were carefully separated along both sides of the trachea, with arterial sheath visible; the bilateral common carotid arteries were separated and exposed with a glass needle, to bury the thread, and then double ligated with silk thread. The blood vessels between the two ligation points were cut off. The incision was sutured layer by layer and disinfected, followed by waiting for awakening of rats. During the operation, incandescent lamp irradiation was used to maintain the anal temperature of rats at 36.5° C.-37.5° C. After surgery, each rat was placed in a single cage to prevent suffocation.
# (§4) 10 healthy SD rats with suitable body weight (within the required range) were randomly selected as the normal control group. 80 successfully modeled rats were randomly divided into 8 groups, with 10 rats in each group. They were named as follows: model control group (n=10), CGA treatment group (n=10), 3-coumaroylquinic acid treatment group (n=10), CGA+3-coumaroylquinic acid (100:0.01) treatment group (n=10), CGA+3-coumaroylquinic acid (100:0.05) treatment group (n=10), CGA+3-coumaroylquinic acid (100:0.5) treatment group (n=10), CGA+3-coumaroylquinic acid (100:1) treatment group (n=10), sodium oligomannate treatment group (n=10), and thus, there are […], along with the normal control group (n=10), for a total of 90 rats.
# In this experiment, except for sodium oligomannate treatment group, which was administered by gavage, all other treatment groups were administered by intraperitoneal injection to each group of rats. The blank group and model group were given the solvent physiological saline by intraperitoneal injection. Rats in each treatment group were administrated one week after modeling surgery. Then, after 20 consecutive days of administration, the experiment was carried out. The administration continued during the experiment. At the same time, both the blank group and the model group were given an equal amount of physiological saline. […]
# [2] = tested on: chronic cerebral hypoperfusion model rats (bilateral carotid artery ligation; simulated early AD); test: Morris water maze space exploration experiment in chronic cerebral hypoperfusion model rats; assay type: in vivo, Sprague Dawley (SD) rats; conditions: for searching time in the quadrant of the original platform compared with the model group (in words): Morris water maze space exploration, versus model group; for Time spent in the original platform quadrant: platform removed, after the orientation navigation experiment, CGA 60 mg/kg/d i.p., 3-coumaroylquinic acid alone 0.03 mg/kg/d i.p., sodium oligomannate 100 mg/kg/d gavage, mean±SD, n=10
# Excerpt: as §1, §2, §3, §4
# In this experiment, except for sodium oligomannate treatment group, which was administered by gavage, all other treatment groups were administered by intraperitoneal injection to each group of rats. […]
Structure (SMILES),average escape latency in Morris water maze experiment ([1]; Day 1) [s],searching distance in Morris water maze experiment ([1]; Day 1) [cm],average escape latency in Morris water maze experiment ([1]; Day 2) [s],searching distance in Morris water maze experiment ([1]; Day 2) [cm],average escape latency in Morris water maze experiment ([1]; Day 3) [s],searching distance in Morris water maze experiment ([1]; Day 3) [cm],average escape latency in Morris water maze experiment ([1]; Day 4) [s],searching distance in Morris water maze experiment ([1]; Day 4) [cm],average escape latency in Morris water maze experiment ([1]; Day 5) [s],searching distance in Morris water maze experiment ([1]; Day 5) [cm],escape latency and searching distance of rats compared with the model group (in words) [1],searching time in the quadrant of the original platform compared with the model group (in words) [2],Time spent in the original platform quadrant [2] [s]
O=C(/C=C/c1ccc(O)cc1)O[C@@H]1C[C@](O)(C(=O)O)C[C@@H](O)[C@H]1O [3-coumaroylquinic acid],98.1 ± 16.8,1127.3 ± 117.2,94.2 ± 15.3,954.5 ± 119.3,81.5 ± 13.7,892.6 ± 106.2,75.4 ± 16.3,577.1 ± 72.5,51.8 ± 14.2,407.1 ± 44.3,almost no improvement,almost no extension,30.2 ± 7.8
"O=C(/C=C/c1ccc(O)c(O)c1)O[C@@H]1C[C@](O)(C(=O)O)C[C@@H](O)[C@H]1O [CGA, 3-O-caffeoylquinic acid]",95.4 ± 15.1,1125.6 ± 108.4,89.2 ± 17.5,944.3 ± 102.5,75.6 ± 12.6,844.8 ± 99.1,70.7 ± 14.5,560.9 ± 64.2,46.3 ± 10.6,395.2 ± 42.7,almost no improvement,almost no extension,32.6 ± 8.5
